Data as given in patent US20090048301A1 (IMCLONE SYSTEMS INCORPORATED, priority 2003, published 2009).

Columns and labels:
bovine tubulin = assay: In vitro tubulin polymerization assay (turbidity at 340 nm); assay type: biochemical; conditions: 10 μM compound, 30 minute data point, vs 1% DMSO control
Summary of the method: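 Bovine tubulin (97%, <3% MAPs) at 3 mg/ml final in G-PEM pH 7 with 1 mM GTP and 5% glycerol, added cold to compound wells at 37° C (1% DMSO final). A340 read each minute for 30 min; percent inhibition from 30-min point versus DMSO control.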

[1] = tested on: A431, human epidermoid carcinoma cells; assay: Cell cycle analysis (FACS), mitotic arrest in G2/M; assay type: cell-based; conditions: Homo sapiens, A-431, 24 h, read-out: FACS Assay: concentration required to achieve inhibition in FACS assay
Experimental: The cell cycle analysis was performed as follows. Cancer cells (A431, human epidennoid carcinoma cells) were maintained in culture in D-MEM media with 10% FBS and 1 mg/ml glutamate. Prior to experiment, cells were plated onto 6-well plates for a final density of 500,000 cells/well at the time of treatment. Cells were treated with the compounds of the invention at a concentration of about 0.01 to 1 μM final concentrations (final 0.1% DMSO) for 24 hours, then trypsinized, collected, rinsed in PBS (phosphate buffered saline), and fixed in 70% cold ethanol overnight at 4° C. The cells were then rinsed with PBS, resuspended in PBS with 0.2% Tween, RNAse was added (final 1 μg/ml), cells were incubated at 37° C. for 15 min, followed by addition of Propidium Iodide (final 50 μg/ml), and a 30 minute incubation at room temperature. DNA ploidy was analyzed using flow cytometers (Epics Excel, Beckman-Coulter, or Guava PCA-96, Guava Technologies) and mitotic arrest characterized by massive accumulation of cells in the G2/M phase of cell cycle.
Cancer cells (A431, human epidermoid cells) were maintained in culture in D-MEM media with 10% FBS and 1 mg/ml glutamate. Prior to experiment, cells are plated onto 6-well plates for a final density of 500,000 cells/well at the time of treatment. Cells were treated with compounds at 0.01-1 μM final concentrations (final […] DMS 0) for 24 hours, then trypsinized, collected, rinsed in PBS (phosphate buffered saline), and fixed in 70% cold ethanol overnight at 4° C. Cells were then rinsed with PBS, resuspended in PBS with 0.2% Tween, RNAse was added (final 1 μg/ml), cells were incubated at 37° C. for 15 min, followed by addition of Propidium Iodide (final 50 μg/ml), and a 30 minute incubation at room temperature. DNA ploidy was analyzed using cell sorters (Epics Excel, Beckman-Coulter, or Guava PCA-96, Guava Technologies) and mitotic arrest characterized by massive accumulation of cells in the G2/M phase of cell cycle.

| Compound | Tubulin Assay: percent inhibition at 10 μM based on 30 minute data (bovine tubulin) [%] | minimal effective concentration [1] [µM] |
| --- | --- | --- |
| c1cnc(Nc2ccc3c(c2)OCO3)c(-c2nnc(Nc3ccc4c(c3)OCO4)[nH]2)c1 [Compound 32, Benzo[1,3]dioxol-5-yl-{3-[5-(benzo[1,3]dioxol-5-ylamino)-4H-[1,2,4]triazol-3-yl]-pyridin-2-yl}-amine] | 54 | 10 |
| c1ccc(-c2nnc(Nc3ccc4c(c3)OCCO4)[nH]2)c(NCc2ccc3[nH]ncc3c2)c1 [Compound 117, (2,3-Dihydro-benzo[1,4]dioxin-6-yl)-(5-{2-[(1H-indazol-5-ylmethyl)-amino]-phenyl}-4H-[1,2,4]triazol-3-yl)-amine] | 84 | 1 |
| COc1ccc(CNc2ncccc2-c2nnc(Nc3ccc(OC)c(OC)c3)o2)cc1OC [Compound 166, (3,4-Dimethoxy-benzyl)-{3-[5-(3,4-dimethoxy-phenylamino)-[1,3,4]oxadiazol-2-yl]-pyridin-2-yl}-amine] | 53 | 1 |
| CS(=O)(=O)c1ccc(-c2nnc(-c3cccnc3NCC3COCCO3)[nH]2)cc1 (stereo not drawn) [Compound 103, [1,4]Dioxan-2-ylmethyl-{3-[5-(4-methanesulfonyl-phenyl)-4H-[1,2,4]triazol-3-yl]-pyridin-2-yl}-amine] | 80 | 1 |
| COc1cc(Nc2ncccc2-c2nnc(NCC3CCCO3)[nH]2)cc(OC)c1 (stereo not drawn) [Compound 56, (3,5-Dimethoxy-phenyl)-(3-{5-[(tetrahydro-furan-2-ylmethyl)-amino]-4H-[1,2,4]triazol-3-yl}-pyridin-2-yl)-amine] | 97 | 1 |
| COc1cccc(-c2nnc(-c3cccnc3NCc3ccc(F)c(F)c3)[nH]2)c1 [Compound 100, (3,4-Difluoro-benzyl)-{3-[5-(3-methoxy-phenyl)-4H-[1,2,4]triazol-3-yl]-pyridin-2-yl}-amine] | 70 | 10 |
| c1cncc(CNc2ncccc2-c2nnc(Nc3ccc4c(c3)OCCO4)o2)c1 [Compound 162, {3-[5-(2,3-Dihydro-benzo[1,4]dioxin-6-ylamino)-[1,3,4]oxadiazol-2-yl]-pyridin-2-yl}-pyridin-3-ylmethyl-amine] | 86 | 0.01 |
| COc1cc(Nc2ncccc2-c2nnc(Nc3cccc([N+](=O)[O-])c3)[nH]2)cc(OC)c1 [Compound 60a, (3,5-dimethoxy-phenyl)-{3-[5-(3-nitro-phenylamino)-4H-[1,2,4]triazol-3-yl]-pyridin-2-yl}-amine] | 95 | 0.1 |
| O=S(=O)(Nc1ccccc1-c1nnc(Nc2ccc3c(c2)OCCO3)[nH]1)c1cccc(OC(F)(F)F)c1 [Compound 127, N-{2-[5-(2,3-Dihydro-benzo[1,4]dioxin-6-ylamino)-4H-[1,2,4]triazol-3-yl]-phenyl}-3-trifluoromethoxy-benzenesulfonamide] | 61 | 10 |
| c1cncc(CNc2ccccc2-c2nnc(Nc3ccc4c(c3)OCCO4)o2)c1 [Compound 216, (2,3-Dihydro-benzo[1,4]dioxin-6-yl)-(5-{2-[(pyridin-3-ylmethyl)-amino]-phenyl}-[1,3,4]oxadiazol-2-yl)-amine] | 94 | 0.1 |
| c1cnc(NCC2COCCO2)c(-c2nnc(Nc3ccc4c(c3)OCO4)o2)c1 (stereo not drawn) [Compound 202, {3-[5-(Benzo[1,3]dioxol-5-ylamino)-[1,3,4]oxadiazol-2-yl]-pyridin-2-yl}-[1,4]dioxan-2-ylmethyl-amine] | 89 | 0.1 |
| COc1ccc(CNc2ncccc2-c2nnc(Nc3ccc4c(c3)OCCO4)o2)cc1OC [Compound 165, {3-[5-(2,3-Dihydro-benzo[1,4]dioxin-6-ylamino)-[1,3,4]oxadiazol-2-yl]-pyridin-2-yl}-(3,4-dimethoxy-benzyl)-amine] | 86 | 0.1 |
| c1ccc(-c2nnc(Nc3ccc4c(c3)OCO4)o2)c(NCc2cn[nH]c2)c1 [Compound 224, Benzo[1,3]dioxol-5-yl-(5-{2-[(1H-pyrazol-4-ylmethyl)-amino]-phenyl}-[1,3,4]oxadiazol-2-yl)-amine] | 81 | 1 |
| c1cnc(NCc2ccc3c(c2)CCO3)c(-c2nnc(Nc3ccc4c(c3)OCCO4)o2)c1 [Compound 199, {3-[5-(2,3-Dihydro-benzo[1,4]dioxin-6-ylamino)-[1,3,4]oxadiazol-2-yl]-pyridin-2-yl}-(2,3-dihydro-benzofuran-5-ylmethyl)-amine] | 88 | 0.1 |
| c1cnc(N2CCOCC2)c(-c2nnc(Nc3ccc4c(c3)OCCO4)o2)c1 [Compound 170, (2,3-Dihydro-benzo[1,4]dioxin-6-yl)-[5-(2-morpholin-4-yl-pyridin-3-yl)-[1,3,4]oxadiazol-2-yl]-amine] | 55 | 0.1 |
| COc1cccc(Nc2nnc(-c3cccnc3NCc3ccco3)[nH]2)c1 [Compound 42, Furan-2-ylmethyl-{3-[5-(3-methoxy-phenylamino)-4H-[1,2,4]triazol-3-yl]-pyridin-2-yl}-amine] | 69 | 10 |
| c1cnc(OCc2ccc3c(c2)OCO3)c(-c2nnc(Nc3ccc4c(c3)OCCO4)o2)c1 [Compound 209, {5-[2-(Benzo[1,3]dioxol-5-ylmethoxy)-pyridin-3-yl]-[1,3,4]oxadiazol-2-yl}-(2,3-dihydro-benzo[1,4]dioxin-6-yl)-amine] | 80 | 1 |
| Fc1cccc(CNc2ncccc2-c2nnc(Nc3ccc4c(c3)OCCO4)o2)c1 [Compound 168, {3-[5-(2,3-Dihydro-benzo[1,4]dioxin-6-ylamino)-[1,3,4]oxadiazol-2-yl]-pyridin-2-yl}-(3-fluoro-benzyl)-amine] | 95 | 0.1 |
| c1cnc(NCc2ccc3c(c2)OCCO3)c(-c2nnc(Nc3ccc4c(c3)OCO4)o2)c1 [Compound 196, {3-[5-(Benzo[1,3]dioxol-5-ylamino)-[1,3,4]oxadiazol-2-yl]-pyridin-2-yl}-(2,3-dihydro-benzo[1,4]dioxin-6-ylmethyl)-amine] | 93 | 1 |
| c1cnc(NCC2CCCO2)c(-c2nnc(Nc3ccc4c(c3)OCCO4)o2)c1 (stereo not drawn) [Compound 175, {3-[5-(2,3-Dihydro-benzo[1,4]dioxin-6-ylamino)-[1,3,4]oxadiazol-2-yl]-pyridin-2-yl}-(tetrahydro-furan-2-ylmethyl)-amine] | 90 | 0.1 |
| Fc1ccc(CNc2ncccc2-c2nnc(Nc3ccc4c(c3)OCCO4)o2)cc1 [Compound 169, {3-[5-(2,3-Dihydro-benzo[1,4]dioxin-6-ylamino)-[1,3,4]oxadiazol-2-yl]-pyridin-2-yl}-(4-fluoro-benzyl)-amine] | 82 | 0.1 |
| COc1cccc(Nc2nnc(-c3cccnc3NCc3ccc(F)c(F)c3)[nH]2)c1 [Compound 45, (3,4-Difluoro-benzyl)-{3-[5-(3-methoxy-phenylamino)-4H-[1,2,4]triazol-3-yl]-pyridin-2-yl}-amine] | 83 | 1 |
| c1cnc(NCc2ccncc2)c(-c2nnc(Nc3ccc4c(c3)OCO4)[nH]2)c1 [Compound 38, {3-[5-(Benzo[1,3]dioxol-5-ylamino)-4H-[1,2,4]triazol-3-yl]-pyridin-2-yl}-pyridin-4-ylmethyl-amine] | 77 | 0.1 |
| Fc1ccc(CNc2ncccc2-c2nnc(Nc3ccc4c(c3)OCCO4)o2)cc1F [Compound 161, (3,4-Difluoro-benzyl)-{3-[5-(2,3-dihydro-benzo[1,4]dioxin-6-ylamino)-[1,3,4]oxadiazol-2-yl]-pyridin-2-yl}-amine] | 82 | 0.1 |
